Assay results as given in US9409884B2 (Rigel Pharmaceuticals, Inc., priority 2012, dated 2016).

Biological target: AMPK
Test: AMPK activation, enzyme-linked immunosorbent assay
Assay type: biochemical
Conditions: Table 8, compounds of Table 1
Outline: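 Read-out: ELISA, used to detect compound-driven activation of AMPK.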

Structure (SMILES) | EC50
N#Cc1ccc(CN2CCC(NC(=O)c3cc4cc(O[C@@H]5CCN(Cc6ccc(-n7cccn7)cc6)C[C@H]5F)ccc4o3)CC2)cc1 [Compound 1-164, 5-((3,4-trans)-1-(4-(1H-pyrazol-1-yl)benzyl)-3-fluoropiperidin-4-yloxy)-N-(1-(4-cyanobenzyl)piperidin-4-yl)benzofuran-2-carboxamide] | 100 to 500 nM
N#Cc1ccc(CN2CCC(NC(=O)c3cc4cc(O[C@@H]5CCN(Cc6ccc(Oc7ccc(F)cc7)cc6)C[C@H]5F)ccc4o3)CC2)cc1 [Compound 1-165, N-(1-(4-cyanobenzyl)piperidin-4-yl)-5-((3,4-trans)-3-fluoro-1-(4-(4-fluorophenoxy)benzyl)piperidin-4-yloxy)benzofuran-2-carboxamide] | < 100 nM
N#Cc1ccc(CN2CCC(NC(=O)c3cc4cc(O[C@@H]5CCN(Cc6cnn(-c7ccc(C#N)cc7)c6)C[C@H]5F)ccc4o3)CC2)cc1 [Compound 1-166, N-(1-(4-cyanobenzyl)piperidin-4-yl)-5-((3,4-trans)-1-((1-(4-cyanophenyl)-1H-pyrazol-4-yl)methyl)-3-fluoropiperidin-4-yloxy)benzofuran-2-carboxamide] | < 100 nM
CS(=O)(=O)c1ccc(CN2CC[C@@H](Oc3ccc4oc(C(=O)NC5CCN(Cc6ccc(C#N)cc6)CC5)cc4c3)[C@H](F)C2)cc1 [Compound 1-167, N-(1-(4-cyanobenzyl)piperidin-4-yl)-5-((3,4-trans)-3-fluoro-1-(4-(methylsulfonyl)benzyl)piperidin-4-yloxy)benzofuran-2-carboxamide] | < 100 nM
N#Cc1ccc(CN2CCC(NC(=O)c3cc4cc(O[C@@H]5CCN(Cc6ccc(OC(F)(F)F)cc6)C[C@H]5F)ccc4o3)CC2)cc1 [Compound 1-168, N-(1-(4-cyanobenzyl)piperidin-4-yl)-5-((3,4-trans)-3-fluoro-1-(4-(trifluoromethoxy)benzyl)piperidin-4-yloxy)benzofuran-2-carboxamide] | < 100 nM
O=C(NC1CCN(Cc2ccc(OC(F)(F)F)cc2)CC1)c1cc2cc(O[C@@H]3CCN(Cc4ccc(-n5cccn5)cc4)C[C@H]3F)ccc2o1 [Compound 1-169, 5-((3,4-trans)-1-(4-(1H-pyrazol-1-yl)benzyl)-3-fluoropiperidin-4-yloxy)-N-(1-(4-(trifluoromethoxy)benzyl)piperidin-4-yl)benzofuran-2-carboxamide] | < 100 nM
O=C(NC1CCN(Cc2ccc(OC(F)(F)F)cc2)CC1)c1cc2cc(O[C@@H]3CCN(Cc4ccc(Oc5ccc(F)cc5)cc4)C[C@H]3F)ccc2o1 [Compound 1-170, 5-((3,4-trans)-3-fluoro-1-(4-(4-fluorophenoxy)benzyl)piperidin-4-yloxy)-N-(1-(4-(trifluoromethoxy)benzyl)piperidin-4-yl)benzofuran-2-carboxamide] | < 100 nM
N#Cc1ccc(-n2cc(CN3CC[C@@H](Oc4ccc5oc(C(=O)NC6CCN(Cc7ccc(OC(F)(F)F)cc7)CC6)cc5c4)[C@H](F)C3)cn2)cc1 [Compound 1-171, 5-((3,4-trans)-1-((1-(4-cyanophenyl)-1H-pyrazol-4-yl)methyl)-3-fluoropiperidin-4-yloxy)-N-(1-(4-(trifluoromethoxy)benzyl)piperidin-4-yl)benzofuran-2-carboxamide] | < 100 nM
CS(=O)(=O)c1ccc(CN2CC[C@@H](Oc3ccc4oc(C(=O)NC5CCN(Cc6ccc(OC(F)(F)F)cc6)CC5)cc4c3)[C@H](F)C2)cc1 [Compound 1-172, 5-((3,4-trans)-3-fluoro-1-(4-(methylsulfonyl)benzyl)piperidin-4-yloxy)-N-(1-(4-(trifluoromethoxy)benzyl)piperidin-4-yl)benzofuran-2-carboxamide] | < 100 nM
O=C(NC1CCN(Cc2ccc(OC(F)(F)F)cc2)CC1)c1cc2cc(O[C@@H]3CCN(Cc4ccc(OC(F)(F)F)cc4)C[C@H]3F)ccc2o1 [Compound 1-173, 5-((3,4-trans)-3-fluoro-1-(4-(trifluoromethoxy)benzyl)piperidin-4-yloxy)-N-(1-(4-(trifluoromethoxy)benzyl)piperidin-4-yl)benzofuran-2-carboxamide] | < 100 nM
N#Cc1ccc(CN2CCC(NC(=O)c3cc4cc(OC5CCN(Cc6ccc(C(F)(F)F)cc6)CC5)ccc4o3)CC2)cc1 [Compound 1-174, N-(1-(4-cyanobenzyl)piperidin-4-yl)-5-(1-(4-(trifluoromethyl)benzyl)piperidin-4-yloxy)benzofuran-2-carboxamide] | < 100 nM
CS(=O)(=O)c1ccc(CN2CCC(Oc3ccc4oc(C(=O)NC5CCN(Cc6ccc(C#N)cc6)CC5)cc4c3)CC2)cc1 [Compound 1-175, N-(1-(4-cyanobenzyl)piperidin-4-yl)-5-(1-(4-(methylsulfonyl)benzyl)piperidin-4-yloxy)benzofuran-2-carboxamide] | < 100 nM

Same assay, conditions: Table 9, compounds of Table 2

Structure (SMILES) | EC50
N#Cc1ccc(CN2CCC(NC(=O)c3ccc4[nH]c5c(c4c3)CN(C(=O)OCc3ccccc3)CC5)CC2)cc1 [Compound 2-1, benzyl 8-(1-(4-cyanobenzyl)piperidin-4-ylcarbamoyl)-3,4-dihydro-1H-pyrido[4,3-b]indole-2(5H)-carboxylate] | 1000 to 5000 nM
O=C(NC1CCN(Cc2ccccc2)CC1)c1ccc2[nH]c3c(c2c1)CN(C(=O)OCc1ccccc1)CC3 [Compound 2-2, benzyl 8-(1-(4-benzyl)piperidin-4-ylcarbamoyl)-3,4-dihydro-1H-pyrido[4,3-b]indole-2(5H)-carboxylate] | 10000 to 50000 nM
CC(C)(C)OC(=O)N1CCC(NC(=O)c2ccc3[nH]c4c(c3c2)CN(C(=O)OCc2ccccc2)CC4)CC1 [Compound 2-3, benzyl 8-(1-(tert-butoxycarbonyl)piperidin-4-ylcarbamoyl)-3,4-dihydro-1H-pyrido[4,3-b]indole-2(5H)-carboxylate] | 10000 to 50000 nM
N#Cc1ccc(CN2CCC(NC(=O)c3ccc4[nH]c5c(c4c3)CN(Cc3ccccc3)CC5)CC2)cc1 [Compound 2-4, 2-benzyl-N-(1-(4-cyanobenzyl)piperidin-4-yl)-2,3,4,5-tetrahydro-1H-pyrido[4,3-b]indole-8-carboxamide] | 1000 to 5000 nM
O=C(NC1CCN(Cc2ccc(C(F)(F)F)cc2)CC1)c1ccc2[nH]c3c(c2c1)CN(Cc1ccccc1)CC3 [Compound 2-5, 2-benzyl-N-(1-(4-trifluoromethylbenzyl)piperidin-4-yl)-2,3,4,5-tetrahydro-1N-pyrido[4,3-b]indole-8-carboxamide] | 1000 to 5000 nM
CC(C)(C)OC(=O)N1CCC(NC(=O)c2ccc3[nH]c4c(c3c2)CN(Cc2ccc(C(F)(F)F)cc2)CC4)CC1 [Compound 2-6, tert-butyl 4-(2-(4-(trifluoromethyl)benzyl)-2,3,4,5-tetrahydro-1H-pyrido[4,3-b]indole-8-carboxamido)piperidine-1-carboxylate] | 500 to 1000 nM
O=C(NC1CCN(Cc2ccncc2)CC1)c1ccc2[nH]c3c(c2c1)CN(Cc1ccccc1)CC3 [Compound 2-7, 2-benzyl-N-(1-(pyridin-4-ylmethyl)piperidin-4-yl)-2,3,4,5-tetrahydro-1H-pyrido[4,3-b]indole-8-carboxamide] | 5000 to 10000 nM
O=C(NC1CCN(Cc2cccnc2)CC1)c1ccc2[nH]c3c(c2c1)CN(Cc1ccc(F)cc1)CC3 [Compound 2-8, 2-(4-fluorobenzyl)-N-(1-(pyridin-3-ylmethyl)piperidin-4-yl)-2,3,4,5-tetrahydro-1H-pyrido[4,3-b]indole-8-carboxamide] | 5000 to 10000 nM
N#Cc1ccc(CN2CCC(NC(=O)c3ccc4[nH]c5c(c4c3)CN(Cc3ccc(F)cc3)CC5)CC2)cc1 [Compound 2-9, N-(1-(4-cyanobenzyl)piperidin-4-yl)-2-(4-fluorobenzyl)-2,3,4,5-tetrahydro-1H-pyrido[4,3-b]indole-8-carboxamide] | < 500 nM
O=C(NC1CCN(Cc2ccc(C(F)(F)F)cc2)CC1)c1ccc2[nH]c3c(c2c1)CN(Cc1ccc(F)cc1)CC3 [Compound 2-10, N-(1-(4-trifluoromethylbenzyl)piperidin-4-yl)-2-(4-fluorobenzyl)-2,3,4,5-tetrahydro-1H-pyrido[4,3-b]indole-8-carboxamide] | 500 to 1000 nM
O=C(NC1CCN(Cc2cccnc2)CC1)c1ccc2[nH]c3c(c2c1)CN(Cc1ccc(C(F)(F)F)cc1)CC3 [Compound 2-11, N-(1-(pyridin-3-ylmethyl)piperidin-4-yl)-2-(4-(trifluoromethyl)benzyl)-2,3,4,5-tetrahydro-1H-pyrido[4,3-b]indole-8-carboxamide] | < 500 nM
N#Cc1ccc(CN2CCC(NC(=O)c3ccc4[nH]c5c(c4c3)CN(Cc3ccc(C(F)(F)F)cc3)CC5)CC2)cc1 [Compound 2-12, N-(1-(4-cyanobenzyl)piperidin-4-yl)-2-(4-(trifluoromethyl)benzyl)-2,3,4,5-tetrahydro-1H-pyrido[4,3-b]indole-8-carboxamide] | < 500 nM
O=C(NC1CCN(Cc2ccc(C(F)(F)F)cc2)CC1)c1ccc2[nH]c3c(c2c1)CN(Cc1ccc(C(F)(F)F)cc1)CC3 [Compound 2-13, N-(1-(4-trifluoromethylbenzyl)piperidin-4-yl)-2-(4-(trifluoromethyl)benzyl)-2,3,4,5-tetrahydro-1H-pyrido[4,3-b]indole-8-carboxamide] | < 500 nM
O=C(NC1CCN(CCc2ccccc2)CC1)c1ccc2[nH]c3c(c2c1)CN(Cc1ccc(C(F)(F)F)cc1)CC3 [Compound 2-14, N-(1-phenethylpiperidin-4-yl)-2-(4-(trifluoromethyl)benzyl)-2,3,4,5-tetrahydro-1H-pyrido[4,3-b]indole-8-carboxamide] | < 500 nM
O=C(NC1CCN(c2ccc(F)cc2)CC1)c1ccc2[nH]c3c(c2c1)CN(Cc1ccc(C(F)(F)F)cc1)CC3 [Compound 2-15, N-(1-(4-fluorophenyl)piperidin-4-yl)-2-(4-(trifluoromethyl)benzyl)-2,3,4,5-tetrahydro-1H-pyrido[4,3-b]indole-8-carboxamide] | < 500 nM
Cn1c2c(c3cc(C(=O)NC4CCN(Cc5ccc(C#N)cc5)CC4)ccc31)CN(Cc1ccc(C(F)(F)F)cc1)CC2 [Compound 2-16, N-(1-(4-cyanobenzyl)piperidin-4-yl)-5-methyl-2-(4-(trifluoromethyl)benzyl)-2,3,4,5-tetrahydro-1H-pyrido[4,3-b]indole-8-carboxamide] | < 500 nM
